According to patent publication US20120122860A1, “SOLID FORMS OF SULFONAMIDES AND AMINO ACIDS” (Plexxikon, Inc., priority 2009, published 2012):

Assays:
[1] = target: B-Raf V600E (Homo sapiens, UniProt P15056, V600E); assay: Kinase activity assay, B-Raf V600E; format: biochemical; settings: read-out: activity toward kinase B-Raf V600E, IC50
[2] = target: Fms (Homo sapiens, UniProt P07333); assay: Kinase activity assay, Fms
[3] = target: Kdr (Homo sapiens, UniProt P35968); assay: Kinase activity assay, Kdr
[4] = target: Kit (Homo sapiens, UniProt P10721); assay: Kinase activity assay, Kit
[5] = target: C-Raf (Homo sapiens, UniProt P04049); assay: Kinase activity assay, C-Raf
[6] = target: B-Raf (Homo sapiens, UniProt P15056); assay: Kinase activity assay, B-Raf; format: biochemical; settings: read-out: activity toward kinase B-Raf, IC50
[7] = target: Src (Homo sapiens, UniProt P12931); assay: Kinase activity assay, Src

Measured: IC50

Sequence of Kit (P10721 26-976): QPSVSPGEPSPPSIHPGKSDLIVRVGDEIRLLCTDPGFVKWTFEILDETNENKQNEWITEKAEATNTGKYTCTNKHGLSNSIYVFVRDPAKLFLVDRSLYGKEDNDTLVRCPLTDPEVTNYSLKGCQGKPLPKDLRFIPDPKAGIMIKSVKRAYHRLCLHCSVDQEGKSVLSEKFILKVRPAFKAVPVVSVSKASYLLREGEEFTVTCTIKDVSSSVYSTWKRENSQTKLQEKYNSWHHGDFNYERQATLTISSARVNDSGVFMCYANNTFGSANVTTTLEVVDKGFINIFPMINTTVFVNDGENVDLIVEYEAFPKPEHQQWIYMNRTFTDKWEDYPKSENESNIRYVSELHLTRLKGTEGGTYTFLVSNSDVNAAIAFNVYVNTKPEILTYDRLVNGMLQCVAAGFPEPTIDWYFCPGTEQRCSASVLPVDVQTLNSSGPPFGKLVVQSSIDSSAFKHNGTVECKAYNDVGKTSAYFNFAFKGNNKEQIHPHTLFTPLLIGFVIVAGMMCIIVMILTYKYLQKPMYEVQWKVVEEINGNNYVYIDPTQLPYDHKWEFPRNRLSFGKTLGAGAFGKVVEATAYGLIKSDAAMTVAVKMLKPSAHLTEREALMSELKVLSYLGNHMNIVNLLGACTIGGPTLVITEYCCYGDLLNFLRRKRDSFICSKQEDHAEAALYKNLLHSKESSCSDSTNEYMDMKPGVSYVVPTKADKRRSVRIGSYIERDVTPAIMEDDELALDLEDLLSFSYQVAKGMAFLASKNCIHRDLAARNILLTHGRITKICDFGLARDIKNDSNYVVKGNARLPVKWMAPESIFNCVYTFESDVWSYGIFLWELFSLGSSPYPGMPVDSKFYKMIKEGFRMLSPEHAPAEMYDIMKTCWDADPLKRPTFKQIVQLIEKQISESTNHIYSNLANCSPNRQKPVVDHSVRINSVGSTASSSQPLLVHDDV
Sequence of B-Raf (P15056 whole entry): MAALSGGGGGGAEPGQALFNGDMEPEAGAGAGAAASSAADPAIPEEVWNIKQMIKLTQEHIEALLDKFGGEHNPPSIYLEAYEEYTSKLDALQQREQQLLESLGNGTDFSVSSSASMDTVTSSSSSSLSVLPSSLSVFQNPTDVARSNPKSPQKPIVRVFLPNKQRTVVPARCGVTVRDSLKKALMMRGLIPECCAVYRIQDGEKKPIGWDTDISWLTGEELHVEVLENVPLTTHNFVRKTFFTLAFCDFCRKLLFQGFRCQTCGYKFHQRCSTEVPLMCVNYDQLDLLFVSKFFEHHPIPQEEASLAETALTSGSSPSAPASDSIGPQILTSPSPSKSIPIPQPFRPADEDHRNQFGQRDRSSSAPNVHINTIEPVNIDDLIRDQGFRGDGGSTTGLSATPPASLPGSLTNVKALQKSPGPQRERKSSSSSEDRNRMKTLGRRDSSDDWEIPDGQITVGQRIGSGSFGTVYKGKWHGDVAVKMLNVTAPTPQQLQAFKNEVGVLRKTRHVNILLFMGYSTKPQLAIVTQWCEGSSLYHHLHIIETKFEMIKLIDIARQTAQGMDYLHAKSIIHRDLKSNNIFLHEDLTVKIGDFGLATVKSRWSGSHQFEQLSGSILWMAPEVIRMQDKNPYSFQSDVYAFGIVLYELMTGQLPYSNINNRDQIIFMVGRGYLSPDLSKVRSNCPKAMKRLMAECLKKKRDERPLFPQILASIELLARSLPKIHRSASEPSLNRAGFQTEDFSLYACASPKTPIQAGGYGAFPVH
Sequence of B-Raf V600E (P15056 whole entry V600E): as the sequence (P15056 whole entry) above, with V600E counted along it
Sequence of C-Raf (P04049 whole entry): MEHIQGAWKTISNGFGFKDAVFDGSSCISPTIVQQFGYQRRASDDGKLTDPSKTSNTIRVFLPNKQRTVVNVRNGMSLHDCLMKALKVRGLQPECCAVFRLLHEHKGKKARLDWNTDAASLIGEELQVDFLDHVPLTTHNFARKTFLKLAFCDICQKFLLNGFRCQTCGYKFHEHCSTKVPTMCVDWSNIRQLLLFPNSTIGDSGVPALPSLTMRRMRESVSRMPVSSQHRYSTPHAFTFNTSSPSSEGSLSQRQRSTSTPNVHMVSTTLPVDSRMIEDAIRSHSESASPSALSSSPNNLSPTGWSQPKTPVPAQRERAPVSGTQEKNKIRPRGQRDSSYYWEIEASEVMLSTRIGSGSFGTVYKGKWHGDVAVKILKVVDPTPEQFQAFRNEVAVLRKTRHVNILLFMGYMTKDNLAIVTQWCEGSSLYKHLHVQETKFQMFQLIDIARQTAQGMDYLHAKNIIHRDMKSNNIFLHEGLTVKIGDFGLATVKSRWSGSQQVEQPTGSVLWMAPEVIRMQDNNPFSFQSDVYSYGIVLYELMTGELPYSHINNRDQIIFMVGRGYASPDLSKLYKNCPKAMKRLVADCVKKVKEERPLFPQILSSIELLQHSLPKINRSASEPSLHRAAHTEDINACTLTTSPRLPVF
Sequence of Fms (P07333 20-972): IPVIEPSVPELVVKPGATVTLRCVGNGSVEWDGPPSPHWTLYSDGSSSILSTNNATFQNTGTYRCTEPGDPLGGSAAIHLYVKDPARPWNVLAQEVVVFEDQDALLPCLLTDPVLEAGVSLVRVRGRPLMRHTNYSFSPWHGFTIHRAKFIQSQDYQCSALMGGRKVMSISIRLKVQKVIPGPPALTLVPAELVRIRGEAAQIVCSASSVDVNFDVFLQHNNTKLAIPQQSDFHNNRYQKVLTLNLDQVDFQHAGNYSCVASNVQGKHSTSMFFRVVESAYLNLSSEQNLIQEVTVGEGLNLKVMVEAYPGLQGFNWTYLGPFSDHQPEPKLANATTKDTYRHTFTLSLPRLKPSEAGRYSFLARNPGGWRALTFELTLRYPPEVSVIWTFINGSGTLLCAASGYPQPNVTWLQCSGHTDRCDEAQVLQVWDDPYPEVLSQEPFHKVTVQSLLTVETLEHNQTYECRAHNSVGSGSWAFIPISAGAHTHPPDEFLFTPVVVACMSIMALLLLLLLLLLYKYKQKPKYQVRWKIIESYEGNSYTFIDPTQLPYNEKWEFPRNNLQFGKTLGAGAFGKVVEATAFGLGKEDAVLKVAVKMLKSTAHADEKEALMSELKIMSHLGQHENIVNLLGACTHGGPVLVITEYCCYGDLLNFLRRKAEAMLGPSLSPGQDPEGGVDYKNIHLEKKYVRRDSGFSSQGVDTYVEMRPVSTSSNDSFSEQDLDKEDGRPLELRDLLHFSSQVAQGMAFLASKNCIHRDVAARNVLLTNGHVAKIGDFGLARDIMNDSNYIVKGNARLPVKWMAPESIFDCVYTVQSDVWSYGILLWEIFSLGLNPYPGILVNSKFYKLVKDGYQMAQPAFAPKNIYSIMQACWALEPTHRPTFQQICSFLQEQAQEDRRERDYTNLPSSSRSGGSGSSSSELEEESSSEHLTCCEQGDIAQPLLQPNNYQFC
Sequence of Kdr (P35968 20-1356): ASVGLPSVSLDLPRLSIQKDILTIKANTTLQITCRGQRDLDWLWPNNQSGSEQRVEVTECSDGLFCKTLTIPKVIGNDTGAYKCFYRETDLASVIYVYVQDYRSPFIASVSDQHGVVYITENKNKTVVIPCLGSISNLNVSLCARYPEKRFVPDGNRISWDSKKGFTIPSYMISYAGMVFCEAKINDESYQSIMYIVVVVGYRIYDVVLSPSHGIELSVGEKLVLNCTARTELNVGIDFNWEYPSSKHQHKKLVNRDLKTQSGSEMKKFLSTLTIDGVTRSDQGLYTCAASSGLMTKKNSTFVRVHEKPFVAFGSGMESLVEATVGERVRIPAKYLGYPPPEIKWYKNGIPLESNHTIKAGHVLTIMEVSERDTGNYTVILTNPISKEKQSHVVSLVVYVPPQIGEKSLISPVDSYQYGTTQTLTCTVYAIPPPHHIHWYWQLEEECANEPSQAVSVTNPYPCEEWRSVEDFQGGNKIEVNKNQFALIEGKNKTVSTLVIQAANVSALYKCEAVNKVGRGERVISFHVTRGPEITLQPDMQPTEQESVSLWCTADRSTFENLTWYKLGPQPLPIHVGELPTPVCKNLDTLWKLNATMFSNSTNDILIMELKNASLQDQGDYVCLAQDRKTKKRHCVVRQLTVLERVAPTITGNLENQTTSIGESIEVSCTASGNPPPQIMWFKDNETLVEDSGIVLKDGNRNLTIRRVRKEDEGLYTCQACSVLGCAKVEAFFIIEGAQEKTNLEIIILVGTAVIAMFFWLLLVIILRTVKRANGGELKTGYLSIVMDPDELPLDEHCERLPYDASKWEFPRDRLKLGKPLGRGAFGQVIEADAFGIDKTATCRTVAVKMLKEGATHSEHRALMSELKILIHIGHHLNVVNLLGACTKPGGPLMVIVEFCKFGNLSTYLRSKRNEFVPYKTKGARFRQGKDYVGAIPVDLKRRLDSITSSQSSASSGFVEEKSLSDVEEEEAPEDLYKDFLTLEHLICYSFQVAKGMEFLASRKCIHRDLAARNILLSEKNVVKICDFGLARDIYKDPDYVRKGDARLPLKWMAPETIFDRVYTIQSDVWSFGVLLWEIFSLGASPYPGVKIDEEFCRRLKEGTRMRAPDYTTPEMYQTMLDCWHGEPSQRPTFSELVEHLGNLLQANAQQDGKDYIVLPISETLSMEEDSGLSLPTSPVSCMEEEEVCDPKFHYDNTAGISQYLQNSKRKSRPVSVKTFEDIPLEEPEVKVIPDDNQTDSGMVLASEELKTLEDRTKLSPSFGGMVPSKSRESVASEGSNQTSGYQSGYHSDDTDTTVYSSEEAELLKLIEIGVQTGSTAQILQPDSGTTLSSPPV

Cc1oncc1S(=O)(=O)Nc1cccc(C(=O)c2c[nH]c3ncc(C#N)cc23)c1F [P-2088, 5-Methyl-isoxazole-4-sulfonic acid [3-(5-cyano-1H-pyrrolo[2,3-b]pyridine-3-carbonyl)-2-fluoro-phenyl]-amide]
not listed: [6] | [7]
≤ 10 µM: all other assays above

O=C(c1cccc(NS(=O)(=O)c2cccc(F)c2)c1)c1c[nH]c2ncc(Cl)cc12 [P-2127, N-[3-(5-Chloro-1H-pyrrolo[2,3-b]pyridine-3-carbonyl)-phenyl]-3-fluoro-benzenesulfonamide]
not listed: [5] | [7]
≤ 10 µM: all other assays above

O=C(c1cc(NS(=O)(=O)c2cccc(C(F)(F)F)c2)ccc1F)c1c[nH]c2ncc(Cl)cc12 [P-2108, N-[3-(5-Chloro-1H-pyrrolo[2,3-b]pyridine-3-carbonyl)-4-fluoro-phenyl]-3-trifluoromethyl-benzenesulfonamide]
not listed: [5] | [7]
≤ 10 µM: all other assays above

CCCS(=O)(=O)Nc1ccc(F)c(C(=O)c2c[nH]c3ncc(C#CCN(CC)CC)cc23)c1F [P-2241, Propane-1-sulfonic acid {3-[5-(3-diethylamino-prop-1-ynyl)-1H-pyrrolo[2,3-b]pyridine-3-carbonyl]-2,4-difluoro-phenyl}-amide]
≤ 10 µM: [2] | [3] | [4]

O=C(c1cccc(NS(=O)(=O)c2cccc(OC(F)(F)F)c2)c1)c1c[nH]c2ncc(Cl)cc12 [P-2124, N-[3-(5-Chloro-1H-pyrrolo[2,3-b]pyridine-3-carbonyl)-phenyl]-3-trifluoromethoxy-benzenesulfonamide]
≤ 10 µM: [2] | [3] | [4]

CCCS(=O)(=O)Nc1cccc(C(=O)c2c[nH]c3ncc(C(=O)OCC)cc23)c1F [P-2406, 3-[2-Fluoro-3-(propane-1-sulfonylamino)-benzoyl]-1H-pyrrolo[2,3-b]pyridine-5-carboxylic acid ethyl ester]
not listed: [5] | [7]
≤ 10 µM: all other assays above

O=C(c1cccc(NS(=O)(=O)c2ccc(OC(F)(F)F)cc2)c1)c1c[nH]c2ncc(Cl)cc12 [P-2123, N-[3-(5-Chloro-1H-pyrrolo[2,3-b]pyridine-3-carbonyl)-phenyl]-4-trifluoromethoxy-benzenesulfonamide]
≤ 10 µM: [6] | [2] | [4]

O=C(c1cc(NS(=O)(=O)C2CC2)ccc1F)c1c[nH]c2ncc(Cl)cc12 [P-2436, Cyclopropanesulfonic acid [3-(5-chloro-1H-pyrrolo[2,3-b]pyridine-3-carbonyl)-4-fluoro-phenyl]-amide]
≤ 10 µM: [1] | [2] | [3] | [4]

O=C(c1cccc(NS(=O)(=O)c2ccc(Cl)cc2)c1)c1c[nH]c2ncc(Cl)cc12 [P-2128, 4-Chloro-N-[3-(5-chloro-1H-pyrrolo[2,3-b]pyridine-3-carbonyl)-phenyl]-benzenesulfonamide]
≤ 10 µM: [6] | [2] | [3] | [4]

CCCS(=O)(=O)Nc1ccc(F)c(C(=O)c2c[nH]c3ncc(-c4ncc(C)n4C)cc23)c1F [P-2152, Propane-1-sulfonic acid {3-[5-(1,5-dimethyl-1H-imidazol-2-yl)-1H-pyrrolo[2,3-b]pyridine-3-carbonyl]-2,4-difluoro-phenyl}-amide]
not listed: [5] | [7]
≤ 10 µM: all other assays above

O=C(c1cc(NS(=O)(=O)c2ccc(F)cc2)ccc1F)c1c[nH]c2ncc(Cl)cc12 [P-2107, N-[3-(5-Chloro-1H-pyrrolo[2,3-b]pyridine-3-carbonyl)-4-fluoro-phenyl]-4-fluoro-benzenesulfonamide]
≤ 10 µM: [2] | [3] | [4]

O=C(c1cccc(NS(=O)(=O)c2ccc(F)cc2)c1)c1c[nH]c2ncc(Cl)cc12 [P-2121, N-[3-(5-Chloro-1H-pyrrolo[2,3-b]pyridine-3-carbonyl)-phenyl]-4-fluoro-benzenesulfonamide]
≤ 10 µM: [2] | [3] | [4]

CCCCS(=O)(=O)Nc1ccc(F)c(C(=O)c2c[nH]c3ncc(Cl)cc23)c1 [P-2435, Butane-1-sulfonic acid [3-(5-chloro-1H-pyrrolo[2,3-b]pyridine-3-carbonyl)-4-fluoro-phenyl]-amide]
≤ 10 µM: [1] | [2] | [3] | [4]

O=C(c1cc(NS(=O)(=O)c2ccc(C(F)(F)F)cc2)ccc1F)c1c[nH]c2ncc(Cl)cc12 [P-2112, N-[3-(5-Chloro-1H-pyrrolo[2,3-b]pyridine-3-carbonyl)-4-fluoro-phenyl]-4-trifluoromethyl-benzenesulfonamide]
≤ 10 µM: [6] | [2] | [4]

O=C(c1cccc(NS(=O)(=O)N2CCCC2)c1F)c1c[nH]c2ncc(-c3ccc(Cl)cc3)cc12 [P-2425, Pyrrolidine-1-sulfonic acid {3-[5-(4-chloro-phenyl)-1H-pyrrolo[2,3-b]pyridine-3-carbonyl]-2-fluoro-phenyl}-amide]
not listed: [4] | [7]
≤ 10 µM: all other assays above

O=C(c1cc(NS(=O)(=O)C2CC2)ccc1F)c1c[nH]c2ncccc12 [P-2439, Cyclopropanesulfonic acid [4-fluoro-3-(1H-pyrrolo[2,3-b]pyridine-3-carbonyl)-phenyl]-amide]
≤ 10 µM: [2] | [3]

O=C(c1cc(NS(=O)(=O)c2ccc(Cl)cc2)ccc1F)c1c[nH]c2ncc(Cl)cc12 [P-2106, 4-Chloro-N-[3-(5-chloro-1H-pyrrolo[2,3-b]pyridine-3-carbonyl)-4-fluoro-phenyl]-benzenesulfonamide]
≤ 10 µM: [6] | [2] | [3] | [4]

CCCCS(=O)(=O)Nc1ccc(F)c(C(=O)c2c[nH]c3ncccc23)c1 [P-2438, Butane-1-sulfonic acid [4-fluoro-3-(1H-pyrrolo[2,3-b]pyridine-3-carbonyl)-phenyl]-amide]
≤ 10 µM: [2] | [3] | [4]

O=C(c1cccc(NS(=O)(=O)C2CC2)c1)c1c[nH]c2ncc(Cl)cc12 [P-2451, Cyclopropanesulfonic acid [3-(5-chloro-1H-pyrrolo[2,3-b]pyridine-3-carbonyl)-phenyl]-amide]
≤ 10 µM: [2] | [3] | [4]

O=C(c1cccc(NS(=O)(=O)c2cccc(Cl)c2)c1)c1c[nH]c2ncc(Cl)cc12 [P-2125, 3-Chloro-N-[3-(5-chloro-1H-pyrrolo[2,3-b]pyridine-3-carbonyl)-phenyl]-benzenesulfonamide]
≤ 10 µM: [2] | [3] | [4]

O=C(c1cc(NS(=O)(=O)c2cccc(OC(F)(F)F)c2)ccc1F)c1c[nH]c2ncc(Cl)cc12 [P-2110, N-[3-(5-Chloro-1H-pyrrolo[2,3-b]pyridine-3-carbonyl)-4-fluoro-phenyl]-3-trifluoromethoxy-benzenesulfonamide]
not listed: [5] | [7]
≤ 10 µM: all other assays above

O=C(c1cccc(NS(=O)(=O)c2cccc(C(F)(F)F)c2)c1)c1c[nH]c2ncc(Cl)cc12 [P-2122, N-[3-(5-Chloro-1H-pyrrolo[2,3-b]pyridine-3-carbonyl)-phenyl]-3-trifluoromethyl-benzenesulfonamide]
≤ 10 µM: [2] | [3] | [4]

O=C(c1c(F)ccc(NS(=O)(=O)C2CC2)c1F)c1c[nH]c2ncc(Br)cc12 [P-2348, Cyclopropanesulfonic acid [3-(5-bromo-1H-pyrrolo[2,3-b]pyridine-3-carbonyl)-2,4-difluoro-phenyl]-amide]
≤ 10 µM: [1] | [2] | [3] | [4]

CCCS(=O)(=O)Nc1ccc(F)c(C(=O)c2c[nH]c3ncc(-c4ccc(S(C)(=O)=O)cc4)cc23)c1F [P-2183, Propane-1-sulfonic acid {2,4-difluoro-3-[5-(4-methanesulfonyl-phenyl)-1H-pyrrolo[2,3-b]pyridine-3-carbonyl]-phenyl}-amide]
not listed: [5] | [7]
≤ 10 µM: all other assays above

CCCCS(=O)(=O)Nc1cccc(C(=O)c2c[nH]c3ncc(Cl)cc23)c1 [P-2450, Butane-1-sulfonic acid [3-(5-chloro-1H-pyrrolo[2,3-b]pyridine-3-carbonyl)-phenyl]-amide]
≤ 10 µM: [1] | [2] | [3] | [4]

COc1ccnc2[nH]cc(C(=O)c3c(F)ccc(NS(=O)(=O)c4ccc(F)cc4F)c3F)c12 [P-2032, N-[2,4-Difluoro-3-(4-methoxy-1H-pyrrolo[2,3-b]pyridine-3-carbonyl)-phenyl]-2,4-difluoro-benzenesulfonamide]
not listed: [2]
≤ 10 µM: all other assays above

CN(C)S(=O)(=O)Nc1cccc(C(=O)c2c[nH]c3ncc(-c4ccc(Cl)cc4)cc23)c1F [P-2423, N,N-dimethylamino-sulfonic acid {3-[5-(4-chloro-phenyl)-1H-pyrrolo[2,3-b]pyridine-3-carbonyl]-2-fluoro-phenyl}-amide]
≤ 10 µM: [1] | [2] | [3]
